Entries after “also recorded” stand apart in the source; their conditions may differ. Starred links: 1 amine or outer side, 2 acyl side, 3 side chain; linkers in the order of their positions; H or OH if unused. Positions of bridges follow the written chain, without caps; N, C: chain ends. Non-standard residues stand in square brackets, D forms with d. Chains are numbered I, II in the order given. X1 = O=C(CCOCCOCCOCCN(CCOCCOCCOCCn1cc(CCC(=O)[*:2])nn1)CCOCCOCCOCCn1cc(CCC(=O)[*:3])nn1)[*:1]; TATA = O=C(CC[*:1])N1CN(C(=O)CC[*:2])CN(C(=O)CC[*:3])C1; d1Nal = N[C@H](Cc1cccc2ccccc12)C(=O)O; Hyp = O=C(O)[C@@H]1C[C@@H](O)CN1; hArg = N=C(N)NCCCC[C@H](N)C(=O)O; tBuAla = CC(C)(C)C[C@H](N)C(=O)O; Nle = CCCC[C@H](N)C(=O)O
What was measured:
[1] = Pharmacokinetics in SD rats; assay type: in vivo; conditions: for half-life: iv
In short: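 Male SD rats received the heterotandem Bicycle complex IV bolus or 15-min IV infusion in 25 mM histidine HCl, 10% sucrose pH 7. Serial K2-EDTA plasma analysed by LC-MS/MS (Orbitrap, positive mode); parameters from non-compartmental analysis.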

[2] = Pharmacokinetics in cynomolgus monkey; assay type: in vivo; conditions: plasma
Description: Serial bleeding (about 1.2 ml blood/time point) was performed from a peripheral vessel from restrained, non-sedated animals at each time point into a commercially available tube containing Potassium (K2) EDTA*2H2O (0.85-1.15 mg) on wet ice and processed for plasma. Samples were centrifuged (3,000×g for 10 minutes at 2 to 8° C.) immediately after collection. 0.1 mL plasma was transferred into labelled polypropylene micro-centrifuge tubes. 5-fold of the precipitant including internal standard 100 ng/mL Labetalol & 100 ng/mL dexamethasone & 100 ng/mL tolbutamide & 100 ng/mL Verapamil & 100 ng/mL Glyburide & 100 ng/mL Celecoxib in MeOH was immediately added into the plasma, mixed well and centrifuged at 12,000 rpm for 10 minutes at 2 to 8° C. Samples of supernatant were transferred into the pre-labeled polypropylene microcentrifuge tubes, and frozen over dry ice. The samples were stored at −60° C. or below until LC-MS/MS analysis. An aliquot of 40 μL calibration standard, quality control, single blank and double blank samples were added to the 1.5 mL tube. Each sample (except the double blank) was quenched with 200 μL IS1 respectively (double blank sample was quenched with 200 μL MeOH with 0.5% tritonX-100), and then the mixture was vortex-mixed well (at least 15 s) with vortexer and centrifuged for 15 min at 12000 g, 4° C. A 10 μL supernatant was injected for LC-MS/MS analysis using an Orbitrap Q Exactive in positive ion mode to determine the concentrations of analyte. Plasma concentration versus time data were analyzed by non-compartmental approaches using the Phoenix WinNonlin 6.3 software program. C0, CI, Vdss, T½, AUC(0-last), AUC(0-inf), MRT(0-last), MRT(0-inf) and graphs of plasma concentration versus time profile were reported.

CD137 = CD137 (Homo sapiens, UniProt Q07011); assay: SPR (Biacore) binding to immobilized human CD137; parameters: purchased R&D systems; conditions: for off rate (koff) from immobilized CD137: avidity from two CD137 binding bicycles; for affinity to immobilized CD137 (human), in words: reported KD may be an overestimation
Sequence of CD137 (Q07011 24-255): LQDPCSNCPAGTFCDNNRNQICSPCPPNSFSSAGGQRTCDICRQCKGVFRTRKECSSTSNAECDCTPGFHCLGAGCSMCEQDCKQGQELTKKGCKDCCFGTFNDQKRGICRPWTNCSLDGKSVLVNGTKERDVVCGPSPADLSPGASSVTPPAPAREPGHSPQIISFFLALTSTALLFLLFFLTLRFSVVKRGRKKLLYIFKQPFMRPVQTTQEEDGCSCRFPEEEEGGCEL
Description: Biacore experiments were performed to determine ka (M^−1s^−1), kd (s^−1), KD (nM) values of heterotandem peptides binding to human CD137 protein. […] The protein was desalted to remove uncoupled biotin using spin columns into PBS.
For analysis of peptide binding, a Biacore T200 or a Biacore 3000 instrument was used with a XanTec CMD500D chip. Streptavidin was immobilized on the chip using standard amine-coupling chemistry at 25° C. with HBS-N (10 mM HEPES, 0.15 M NaCl, pH 7.4) as the running buffer. Briefly, the carboxymethyl dextran surface was activated with a 7 min injection of a 1:1 ratio of 0.4 M 1-ethyl-3-(3-dimethylaminopropyl) carbodiimide hydrochloride (EDC)/0.1 M N-hydroxy succinimide (NHS) at a flow rate of 10 μl/min. For capture of streptavidin, the protein was diluted to 0.2 mg/ml in 10 mM sodium acetate (pH 4.5) and captured by injecting 120 μl of onto the activated chip surface. Residual activated groups were blocked with a 7 min injection of 1 M ethanolamine (pH 8.5) and biotinylated CD137 captured to a level of 270-1500 RU. Buffer was changed to PBS/0.05% Tween 20 and a dilution series of the peptides was prepared in this buffer with a final DMSO concentration of 0.5%. The top peptide concentration was 500 nM with 6 further 2-fold or 3-fold dilutions. The SPR analysis was run at 25° C. at a flow rate of 90 μl/min with 60 seconds association and 900 seconds dissociation. After each cycle a regeneration step (10 μl of 10 mM glycine pH 2) was employed. Data were corrected for DMSO excluded volume effects as needed. All data were double-referenced for blank injections and reference surface using standard processing procedures and data processing and kinetic fitting were performed using Scrubber software, version 2.0c (BioLogic Software). Data were fitted using simple 1:1 binding model allowing for mass transport effects where appropriate.

With `CCCC[C@@H]1NC(=O)[C@H](Cc2ccc(O)cc2)NC(=O)[C@@H]2CCCN2C(=O)[C@H](CC(=O)O)NC(=O)[C@H](C)NC(=O)[C@H](Cc2ccccc2)NC(=O)[C@@H]2CSCCC(=O)N3CN(CN(C3)C(=O)CCSC[C@@H](C(=O)N[C@@H](C)C(N)=O)NC1=O)C(=O)CCSC[C@H](NC(C)=O)C(=O)N[C@@H](CC(C)(C)C)C(=O)N1CCC[C@H]1C(=O)N[C@@H](CCC(=O)O)C(=O)N[C@H](CCCCNC(=O)CCc1cn(CCOCCOCCOCCN(CCOCCOCCOCCC(=O)N[C@H]3CSCCC(=O)N4CN5CN(C4)C(=O)CCSC[C@H](NC(=O)[C@@H](CC(=O)O)NC(=O)[C@H](Cc4cccc6ccccc46)NC(=O)[C@@H]4CCCN4C3=O)C(=O)N[C@@H](CCSC)C(=O)N[C@@H](CCCCNC(=N)N)C(=O)N[C@@H](CC(=O)O)C(=O)N[C@@H](Cc3c[nH]c4ccccc34)C(=O)N[C@@H](CO)C(=O)N[C@@H]([C@@H](C)O)C(=O)N3CCC[C@H]3C(=O)N3C[C@H](O)C[C@H]3C(=O)N[C@@H](Cc3c[nH]c4ccccc34)C(=O)N[C@H](C(N)=O)CSCCC5=O)CCOCCOCCOCCn3cc(CCC(=O)NCCCC[C@H]4NC(=O)[C@H](CCC(=O)O)NC(=O)[C@@H]5CCCN5C(=O)[C@H](CC(C)(C)C)NC(=O)[C@@H](NC(C)=O)CSCCC(=O)N5CN6CN(C5)C(=O)CCSC[C@H](NC(=O)[C@H](Cc5ccc(O)cc5)NC(=O)[C@@H]5CCCN5C4=O)C(=O)N[C@@H](Cc4ccccc4)C(=O)N[C@@H](C)C(=O)N[C@@H](CC(=O)O)C(=O)N4CCC[C@H]4C(=O)N[C@@H](Cc4ccc(O)cc4)C(=O)N[C@@H](CCCC)C(=O)N[C@H](C(=O)N[C@@H](C)C(N)=O)CSCCC6=O)nn3)nn1)C(=O)N1CCC[C@H]1C(=O)N[C@@H](Cc1ccc(O)cc1)C(=O)N2` [BCY11863] the “Clp” value ([1]; 100 mg/kg BCY11863 IV) was 13 mL/min/kg, the “Vdss” value ([1]; 100 mg/kg BCY11863 IV) was 2.3 L/kg and the “fraction metabolized to BCY15155” value ([1]; IV administration of BCY11863, 100 mg/kg) was under 1%. The “bioavailability from SC dosing” value ([1]; SC dosing) was “high”, the “clearance (in words)” value ([1]; Table 6B) was “low clearance molecule” and the “volume of distribution (in words)” value ([1]; Table 6B) was “volume of distribution larger than plasma volume”. For the same molecule, the “conversion to BCY14602” value ([1]; first 24 h, IV BCY11863, 100 mg/kg) was “No significant conversion”, the half-life ([1]; male, SD, rat, plasma, 2 mg/kg, 2 mg/kg IV, n=3, read-out: terminal half life (converted)) was 4.1 h and the clearance ([1]; male, SD, rat, plasma, 2 mg/kg IV, n=3, read-out: clearance) was 7.7 mL/min/kg. It also gave a Vd ([1]; male, SD, rat, plasma, 2 mg/kg IV, n=3, read-out: volume of distribution at steady state (Vdss)) of 1.6 L/kg, a clearance ([1]; male, rat, plasma, SD rats, 1.9 mg/kg IV Bolus, read-out: Clp) of 7.7 mL/min/kg and a Vd ([1]; male, rat, plasma, SD rats, 1.9 mg/kg IV Bolus, read-out: Vdss) of 1.6 L/kg. It also gave a clearance ([1]; male, rat, plasma, SD rats, 3.2 mg/kg IV Inf (15 min), read-out: Clp) of 9.3 mL/min/kg, a Vd ([1]; male, rat, plasma, SD rats, 3.2 mg/kg IV Inf (15 min), read-out: Vdss) of 1.3 L/kg and a bioavailability ([1]; male, rat, plasma, SD rats, 6.3 mg/kg SC) of 95%. It also gave a Vd ([2]; 0.93 mg/kg IV infusion (30 min), read-out: Vdss) of 0.62 L/kg, a clearance ([2]; 0.97 mg/kg IV infusion (15 min), read-out: Clp) of 4.8 mL/min/kg and a half-life ([2]; 0.97 mg/kg IV infusion (15 min), read-out: T1/2 (converted)) of 4.5 h. For the same molecule, the Vd ([2]; 0.97 mg/kg IV infusion (15 min), read-out: Vdss) was 0.91 L/kg, the Vd ([2]; 1 mg/kg IV infusion, n=2, read-out: volume of distribution at steady state (Vdss)) was 0.62 L/kg and the clearance ([2]; 9.4 mg/kg IV infusion (15 min), read-out: Clp) was 3.9 mL/min/kg. For the same molecule, the half-life ([2]; 9.4 mg/kg IV infusion (15 min), read-out: T1/2 (converted)) was 8.9 h, the Vd ([2]; 9.4 mg/kg IV infusion (15 min), read-out: Vdss) was 1.1 L/kg and the “off rate (koff) from immobilized CD137” value (CD137) was “extremely slow; also recorded: very slow”. The “affinity to immobilized CD137 (human), in words” value (CD137) was “high affinity”.

For “I: A[hArg]DC[Hyp]LVNPLCLEP[d1Nal]WTC-NH2 / II: Ac-C[tBuAla]PE[dK]PYCFADPY[Nle]CA-NH2 / III: Ac-C[tBuAla]PE[dK]PYCFADPY[Nle]CA-NH2 (linker I:4-I:11-I:18, II:1-II:8-II:15, III:1-III:8-III:15 via TATA; linker I:N-II:5-III:5 via X1) [BCY13272]”, the terminal half life ([1]; 3.6 mg/kg IV infusion (15 min), n=3) was 2.9 h, the half-life ([1]; male, SD, rat, plasma, 3.6 mg/kg, 3.6 mg/kg IV infusion (15 min), n=3, read-out: terminal half life (converted)) was 2.5 h and the half-life ([1]; male, SD, rat, plasma, IV Inf (15 minutes), read-out: T1/2 (converted)) was 2.5 h. The clearance ([1]; male, SD, rat, plasma, 3.6 mg/kg IV infusion (15 min), n=3, read-out: clearance) was 7.5 mL/min/kg, the Vd ([1]; male, SD, rat, plasma, 3.6 mg/kg IV infusion (15 min), n=3, read-out: volume of distribution at steady state (Vdss)) was 1 L/kg and the Vd ([1]; male, SD, rat, plasma, IV Inf (15 minutes), read-out: Vdss) was 1 L/kg. For the same molecule, the clearance ([2]; 9.2 mg/kg IV infusion (15 min), read-out: clearance) was 4.1 mL/min/kg, the Vd ([2]; 9.2 mg/kg IV infusion (15 min), read-out: volume of distribution at steady state (Vdss)) was 0.82 L/kg and the half-life ([2]; IV infusion (15 min), 9.2 mg/kg, read-out: T1/2 (converted)) was 8.9 h. The half-life ([2]; IV infusion (15 min), dose 9.2 mg/kg, 8.9 mg/kg, read-out: terminal half life (converted)) was 8.9 h, the “off rate (koff) from immobilized CD137” value (CD137) was “very slow” and the “affinity to immobilized CD137 (human), in words” value (CD137) was “high affinity”.

Source: patent publication US20230129258A1, “HETEROTANDEM BICYCLIC PEPTIDE COMPLEXES” (BicycleTx Limited, priority 2019, published 2023)
